The target in one assay is T1, BRD2 BD1 (Homo sapiens, UniProt P25440).
T1 construct: BRD2 BD1, BRD3 BD1 and BRD4 BD1 (Cisbio); purchased Cisbio
The assay is described as follows: Binding assay, BRD2 BD1 to acetylated histone H4 Peptide-Biotin (EPIgeneous Binding Domain Kit A). To be noted: test compound at 300 nmol/L; read-out: Binding inhibition percentage BRD2 BD1. The procedure: (§1) BRD2 BD1, BRD3 BD1 and BRD4 BD1 (Cisbio), [Lys(Ac)5/8/12/16]-Histone H4(1-25)-GSGSK (Biotin) (hereinafter referred to as “Peptide-Biotin,” AnaSpec), and EPIgeneous (registered trademark) Binding Domain Kit A (Cisbio) were used to carry out an assay. That is to say, per well, 4 μL of BRD2 BD1, BRD3 BD1 or BRD4 BD1, which was adjusted to 20 nmol/L with Diluent buffer; 4 μL of 25 nmol/L Peptide-Biotin; 2 μL of Dilution buffer (Cisbio) containing dimethyl sulfoxide (DMSO) or a test compound that was serially diluted with DMSO; 5 μL of 2.5 nmol/L Streptavidin-d2; and 5 μL of Anti-Gst-Eu+^3+ Cryptate Conjugate 50-fold diluted with Detection Buffer were added to a 384-well plate (Corning).
(§2) The obtained mixture was left at rest at room temperature for 20 hours, and thereafter, the fluoresence intensity at 665 nm and 620 nm was measured using Envision plate reader (Perkin Elmer), so that the inhibition percentage (%) of the test compound against the binding of a bromodomain in a bromodomain-containing protein to Peptide-Biotin was calculated. Binding inhibition percentage (%)=[1−{(fluorescence intensity at 665 nm of test compound−added well)/(fluorescence intensity at 620 nm of test compound−added well)}/{(fluorescence intensity at 665 nm of DMSO−added well)/(fluorescence intensity at 665 nm of DMSO−added well)}]×100
(§3) Moreover, using Graphpad prism 5 (GraphPad software), 50% inhibitory concentration [IC50 (nmol/L)] was calculated according to a non-linear regression analysis (log (inhibitor) vs. response—Variable slope (four parameters)).
(§4) Regarding other test compounds, each compound was diluted with DMSO to a final concentration of 300 nmol/L by the same method as that described above, and the binding inhibition percentage (%) of each test compound at 300 nmol/L against the binding of bromodomain in a bromodomain-containing protein to acetylated histone was calculated.

The target of another assay is T2, BRD2 BD2 (Homo sapiens, UniProt P25440).
T2 construct: BRD2 BD2, BRD3 BD2 and BRD4 BD2 (Cisbio); purchased Cisbio
The experiment in a line: Binding assay, BRD2 BD2 to acetylated histone H4 Peptide-Biotin (EPIgeneous Binding Domain Kit B). To be noted: test compound at 300 nmol/L; read-out: Binding inhibition percentage BRD2 BD2. The procedure:
(§5) Moreover, BRD2 BD2, BRD3 BD2 and BRD4 BD2 (Cisbio), Peptide-Biotin (AnaSpec), and EPIgeneous (registered trademark) Binding Domain Kit B (Cisbio) were used to carry out an assay. That is, per well, 4 μL of BRD2 BD2, BRD3 BD2 or BRD4 BD2, which was adjusted to 20 nmol/L with Diluent buffer; 4 μL of 250 nmol/L Peptide-Biotin; 2 μL of Dilution buffer (Cisbio) containing DMSO or a test compound that was serially diluted with DMSO; 5 μL of 25 nmol/L Streptavidin-XL665; 5 μL of Anti-Gst-Eu+^3+ Cryptate Conjugate 50-fold diluted with Detection Buffer were added to a 384-well plate (Corning).
as §2, §3, §4

For the next assay, the target named is T3, BRD3 BD1 (Homo sapiens, UniProt Q15059).
T3 construct: BRD2 BD1, BRD3 BD1 and BRD4 BD1 (Cisbio); purchased Cisbio
The assay is described as follows: Binding assay, BRD3 BD1 to acetylated histone H4 Peptide-Biotin (EPIgeneous Binding Domain Kit A). To be noted: test compound at 300 nmol/L; read-out: Binding inhibition percentage BRD3 BD1. On the procedure: as §1, §2, §3, §4

The target of a further assay is T4, BRD3 BD2 (Homo sapiens, UniProt Q15059).
T4 construct: BRD2 BD2, BRD3 BD2 and BRD4 BD2 (Cisbio); purchased Cisbio
The experiment in a line: Binding assay, BRD3 BD2 to acetylated histone H4 Peptide-Biotin (EPIgeneous Binding Domain Kit B). The settings on record: test compound at 300 nmol/L; read-out: Binding inhibition percentage BRD3 BD2. On the procedure:
as §5, §2, §3, §4

A further assay deals with T5, BRD4 BD1 (Homo sapiens, UniProt O60885).
T5 construct: BRD2 BD1, BRD3 BD1 and BRD4 BD1 (Cisbio); purchased Cisbio
The experiment in a line: Binding assay, BRD4 BD1 to acetylated histone H4 Peptide-Biotin (EPIgeneous Binding Domain Kit A). The settings on record: test compound at 300 nmol/L; read-out: Binding inhibition percentage BRD4 BD1. On the procedure:
as §1, §2, §3, §4

The target of a further assay is T6, BRD4 BD2 (Homo sapiens, UniProt O60885).
T6 construct: BRD2 BD2, BRD3 BD2 and BRD4 BD2 (Cisbio); purchased Cisbio
The assay is described as follows: Binding assay, BRD4 BD2 to acetylated histone H4 Peptide-Biotin (EPIgeneous Binding Domain Kit B). The settings on record: test compound at 300 nmol/L; read-out: Binding inhibition percentage BRD4 BD2. The procedure:
as §5, §2, §3, §4

The structures appear in SMILES notation.

The record followed here is patent publication US10987349B2, “Antitumor agent and bromodomain inhibitor” (FUJIFILM Corporation, priority 2016, dated 2021).

T3 sequence (Q15059 34-140 limits assumed): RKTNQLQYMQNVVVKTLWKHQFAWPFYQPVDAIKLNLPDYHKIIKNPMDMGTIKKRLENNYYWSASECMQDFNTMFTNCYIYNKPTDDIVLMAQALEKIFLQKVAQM
T2 sequence (P25440 344-453 limits assumed): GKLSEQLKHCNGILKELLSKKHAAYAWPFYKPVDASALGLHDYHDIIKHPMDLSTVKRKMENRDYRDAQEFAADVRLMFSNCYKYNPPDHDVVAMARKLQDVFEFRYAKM
T1 sequence (P25440 74-180 limits assumed): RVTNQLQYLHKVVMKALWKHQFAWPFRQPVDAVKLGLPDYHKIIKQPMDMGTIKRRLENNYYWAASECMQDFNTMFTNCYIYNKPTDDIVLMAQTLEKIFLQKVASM
T4 sequence (Q15059 306-415 limits assumed): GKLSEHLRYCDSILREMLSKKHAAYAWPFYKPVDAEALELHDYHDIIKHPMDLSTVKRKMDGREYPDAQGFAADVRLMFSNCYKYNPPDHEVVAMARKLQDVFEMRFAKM

For `Cc1ccc(N(C)C(=O)c2ccc3c(c2)c(C2CCN(C)CC2)cc(=O)n3C)cc1` [Example 235, N,1-dimethyl-N-(4-methylphenyl)-4-(1-methylpiperidin-4-yl)-2-oxo-1,2-dihydroquinoline-6-carboxamide], the inhibition at 0.3 µM was 94% on BRD2 BD1; 82% at BRD2 BD2; 94% on BRD3 BD1; 89% at BRD3 BD2; 95% on BRD4 BD1; 87% on BRD4 BD2.
For the molecule `CCn1c(=O)cc(C2CCN(CCO)CC2)c2cc(C(=O)N(C)c3ccc4c(c3)CCCC4)ccc21` [Example 179, 1-ethyl-4-(1-(2-hydroxyethyl)piperidin-4-yl)-N-methyl-2-oxo-N-(5,6,7,8-tetrahydronaphthalen-2-yl)-1,2-dihydroquinoline-6-carboxamide], the inhibition at 0.3 µM is 93% at BRD2 BD1; 88% on BRD2 BD2; 94% at BRD3 BD1; 92% on BRD3 BD2; 95% at BRD4 BD1; 88% on BRD4 BD2.
Regarding `CCn1c(=O)cc(C(C)C)c2cc(N(C)C(=O)c3ccc(Cl)cc3)ccc21` [Example 16, 4-Chloro-N-(1-ethyl-2-oxo-4-(propan-2-yl)-1,2-dihydroquinolin-6-yl)-N-methylbenzamide], the inhibition at 0.3 µM was 44% on BRD2 BD1; 87% at BRD2 BD2; 79% at BRD3 BD1; 92% on BRD3 BD2; 70% at BRD4 BD1; 88% on BRD4 BD2.
As to `CCn1c(=O)cc(C2CC2)c2cc(N3C(=O)C(C)C(=O)N3c3ccccc3)ccc21` (stereo not drawn) [Example 280, 1-(4-cyclopropyl-1-ethyl-2-oxo-1,2-dihydroquinolin-6-yl)-4-methyl-2-phenylpyrazolidine-3,5-dione], the inhibition at 0.3 µM at BRD2 BD1 amounted to 83%; on BRD2 BD2 it was 88%; at BRD3 BD1 it was 90%; on BRD3 BD2, 92%; at BRD4 BD1, 93%; at BRD4 BD2, 90%.
In the case of `CCn1c(=O)cc(C2CCN(C(=O)C(C)C)CC2)c2cc(C(=O)N(C)c3ccc(C)cc3)ccc21` [Example 183, 1-ethyl-N-methyl-N-(4-methylphenyl)-4-(1-(2-methylpropanoyl)piperidin-4-yl)-2-oxo-1,2-dihydroquinoline-6-carboxamide], the inhibition at 0.3 µM at BRD2 BD1 is 81%; at BRD2 BD2 it was 71%; on BRD3 BD1, 92%; on BRD3 BD2, 80%; on BRD4 BD1, 94%; on BRD4 BD2 it was 83%.
Turning to `CCn1c(=O)cc(C2CC2)c2cc(-n3c(-c4ccc(C(F)(F)F)cc4)c[nH]c3=O)ccc21` [Example 268, 4-cyclopropyl-1-ethyl-6-(2-oxo-5-(4-(trifluoromethyl)phenyl)-2,3-dihydro-1H-imidazol-1-yl)quinolin-2(1H)-one], the inhibition at 0.3 µM at BRD2 BD1 worked out at 48%; at BRD2 BD2, 86%; on BRD3 BD1 it was 62%; at BRD3 BD2, 92%; at BRD4 BD1, 73%; at BRD4 BD2 it was 87%.
`CCn1c(=O)cc(N2CCOCC2)c2cc(-n3ccnc3-c3ccccc3)ccc21` [Example 255, 1-ethyl-4-(morpholin-4-yl)-6-(2-phenyl-1H-imidazol-1-yl)quinolin-2(1H)-one]: the inhibition at 0.3 µM stood at 79% at BRD2 BD1; 89% at BRD2 BD2; 92% on BRD3 BD1; 90% on BRD3 BD2; 94% on BRD4 BD1; 87% at BRD4 BD2.
`CCC1C(=O)N(c2ccccc2)N(c2ccc3c(c2)c(C2CC2)cc(=O)n3CC)C1=O` (stereo not drawn) [Example 281, 1-(4-cyclopropyl-1-ethyl-2-oxo-1,2-dihydroquinolin-6-yl)-4-ethyl-2-phenylpyrazolidine-3,5-dione]: the inhibition at 0.3 µM at BRD2 BD1 turned out to be 87%; on BRD2 BD2, 89%; on BRD3 BD1, 92%; at BRD3 BD2 it was 91%; on BRD4 BD1 it was 94%; on BRD4 BD2, 88%.
For `CCn1c(=O)cc(C2CC2)c2cc(-n3c(-c4ccc(Cl)cc4)c[nH]c3=O)ccc21` [Example 271, 6-(5-(4-chlorophenyl)-2-oxo-2,3-dihydro-1H-imidazol-1-yl)-4-cyclopropyl-1-ethylquinolin-2(1H)-one], the inhibition at 0.3 µM at BRD2 BD1 is 60%; on BRD2 BD2, 88%; on BRD3 BD1, 72%; on BRD3 BD2, 92%; on BRD4 BD1, 77%; at BRD4 BD2 it was 88%.
For `CCN1CCC(c2cc(=O)n(CC)c3ccc(C(=O)N(C)c4ccccc4)cc23)CC1` [Example 8, 1-ethyl-4-(1-ethylpiperidin-4-yl)-N-methyl-2-oxo-N-phenyl-1,2-dihydroquinoline-6-carboxamide], the inhibition at 0.3 µM on BRD2 BD1 came to 93%; on BRD2 BD2 it was 79%; at BRD3 BD1 it was 94%; on BRD3 BD2, 67%; on BRD4 BD1 it was 94%; on BRD4 BD2 it was 74%.
On to `CCn1c(=O)cc(C2CC2)c2cc(-c3nc(C)[nH]c3-c3ccccc3)ccc21` [Example 283, 4-cyclopropyl-1-ethyl-6-(2-methyl-5-phenyl-1H-imidazol-4-yl)quinolin-2(1H)-one], for which the inhibition at 0.3 µM at BRD2 BD1 worked out at 68%; on BRD2 BD2 it was 86%; on BRD3 BD1, 87%; on BRD3 BD2, 92%; at BRD4 BD1, 90%; at BRD4 BD2, 87%.
For the molecule `CCCn1cc(-c2ccccc2)n(-c2ccc3c(c2)c(N2CCOCC2)cc(=O)n3CC)c1=O` [Example 265, 1-ethyl-4-(morpholin-4-yl)-6-(2-oxo-5-phenyl-3-propyl-2,3-dihydro-1H-imidazol-1-yl)quinolin-2(1H)-one], the inhibition at 0.3 µM was 91% at BRD2 BD1; 89% on BRD2 BD2; 95% on BRD3 BD1; 92% at BRD3 BD2; 94% on BRD4 BD1; 87% on BRD4 BD2.
Regarding `CCn1c(=O)cc(C2CC2)c2cc(-c3nc(C)nn3-c3ccccc3)ccc21` [Example 252, 4-cyclopropyl-1-ethyl-6-(3-methyl-1-phenyl-1H-1,2,4-triazol-5-yl)quinolin-2(1H)-one], the inhibition at 0.3 µM worked out at 82% on BRD2 BD1; 86% at BRD2 BD2; 92% on BRD3 BD1; 90% at BRD3 BD2; 94% at BRD4 BD1; 88% at BRD4 BD2.
Consider `CCn1c(=O)cc(C2CC2)c2cc(-n3c(=O)[nH]c(=O)n3-c3ccccc3)ccc21` [Example 248, 1-(4-cyclopropyl-1-ethyl-2-oxo-1,2-dihydroquinolin-6-yl)-2-phenyl-1,2,4-triazolidine-3,5-dione], for which the inhibition at 0.3 µM amounted to 93% on BRD2 BD1; 90% on BRD2 BD2; 95% on BRD3 BD1; 91% at BRD3 BD2; 95% on BRD4 BD1; 90% at BRD4 BD2.

In general, inhibition refers to how much of the control response was suppressed.
